Like-named read-outs stand apart in the source and are kept apart here.
System: Stat3-ER expressing A375 cells
Type: cell-based
Method: In order to understand Stat3's ability to affect cell proliferation and cell death, we have examined the profile of genes expressed upon Stat3 activation in A375 cells using oligonucleotide microarrays.
Briefly, microarray analysis was performed using HG U95A GeneChips™ (Affymetrix, Santa Clara, USA) essentially according to the manufacturer's instructions. […] RNA from three independent experiments was pooled and biotin-labeled cRNA probes were generated from each sample starting from 10 μg of total cellular RNA. The resulting biotinylated cRNAs were hybridized to the Affymetrix U95A oligonucleotide array containing more than 12,000 sequences and signals detected. Chip analysis was performed using the Affymetrix Microarray Suite v5 (target intensity 500 used for chip scaling) and GeneSpring 4.2.1 (Silicon Genetics). Changes in gene expression were assessed by looking for concordant changes between replicates using a signed Wilcoxon rank test (as recommended by Affymetrix).

Structure (SMILES): CCC(=C(c1ccc(O)cc1)c1ccc(OCCN(C)C)cc1)c1ccccc1 [4HT, 4-hydroxytamoxifen, reference compound]
- expression change (fold): Absent in melanoma 2 (Avge of clones): 2.1
- expression change (fold): Alpha-1-antichymotrypsin precursor (Avge of clones): 2.5
- expression change (fold): Aquaporin 3 (Avge of clones): 5.2
- expression change (fold): Brain-derived neurotrophic factor (Avge of clones): 6.3
- expression change (fold): CCAAT/enhancer binding protein (C/EBP), delta (Avge of clones): 4.6
- expression change (fold): Cathepsin L (Avge of clones): 3.7
- expression change (fold): Cytokine receptor-like factor 1 (Avge of clones): 4.8
- expression change (fold): Death-associated protein kinase 1 (Avge of clones): 5.3
- expression change (fold): Ephrin A1 precursor (Avge of clones): 4.0
- expression change (fold): Ets variant gene 6 (Avge of clones): 4.2
- expression change (fold): Fibronectin (Avge of clones): 4.5
- expression change (fold): Fibronectin 1, isoform 1 preproprotein (Avge of clones): 5.2
- expression change (fold): Glycine dehydrogenase (decarboxylating, glycine decdarboxylase, glycine cleavage system protein P) (Avge of clones): 1.7
- expression change (fold): H. sapiens mRNA; cDNA DZFZp586N012 (Avge of clones): 2.3
- expression change (fold): I factor (complement) (Avge of clones): 2.9
- expression change (fold): Insulin-like growth factor binding protein 3 (Avge of clones): 3.9
- expression change (fold): Intercellular adhesion molecule 1 precursor (Avge of clones): 2.4
- expression change (fold): Interferon induced transmembrane protein 1 (9-27) (Avge of clones): 2.8
- expression change (fold): Interleukin 8 (Avge of clones): 4.9
- expression change (fold): Jun B proto-oncogene (Avge of clones): 3.0
- expression change (fold): KIAA0161 gene product (Avge of clones): 2.4
- expression change (fold): KIAA0303 protein (Avge of clones): 2.9
- expression change (fold): KIAA0500 protein (Avge of clones): 4.2
- expression change (fold): Killer cell lectin-like receptor subfamily C, member 2 (Avge of clones): 6.1
- expression change (fold): Killer cell lectin-like receptor subfamily C, member 3 isoform NKG2-E (Avge of clones): 10.3
- expression change (fold): Kynureninase (L-kynurenine hydrolase) (Avge of clones): 3.6
- expression change (fold): Major vault protein (Avge of clones): 2.8
- expression change (fold): Nicotinamide N-methyltransferase (Avge of clones): 2.6
- expression change (fold): Niemann-Pick disease, type C1 (Avge of clones): 2.2
- expression change (fold): Oncostatin M receptor (Avge of clones): 3.3
- expression change (fold): Osteoprotegrin (Avge of clones): 8.6
- expression change (fold): Prostatic acid phosphatase precursor (Avge of clones): 10.5
- expression change (fold): Ras-induced senescence 1 (Avge of clones): 2.4
- expression change (fold): Regenerating islet-derived 1 alpha (pancreatic stone protein, pancreatic thread protein) (Avge of clones): 4.0
- expression change (fold): Regulator of G protein signalling 16 (Avge of clones): 5.3
- expression change (fold): STAT induced STAT inhibitor 3 (Avge of clones): 9.9
- expression change (fold): Secreted phosphoprotein 1 (osteopontin, bone sialoprotein 1, early T-lymphocyte activation 1) (Avge of clones): 25.5
- expression change (fold): Serine (or cysteine) protease inhibitor, clade B (ovalbumin), member 3 (Avge of clones): 100.2
- expression change (fold): Small inducible cytokine A2 (monocyte chemotactic protein 1) (Avge of clones): 2.4
- expression change (fold): Solute carrier family 2 (facilitated glucose transporter), member 3 (Avge of clones): 2.6
- expression change (fold): Stanniocalcin 1 (Avge of clones): 6.7
- expression change (fold): Tyrosine phosphatase/TIGR = HG620-HT620 (Avge of clones): 2.2
- expression change (fold): v-fos FBJ murine osteosarcoma viral gene homologue (Avge of clones): 3.9
- expression change (fold): v-jun avian sarcoma virus 17 oncogene homologue (Avge of clones): 4.9
- expression change (fold): v-maf musculoaponeurotic fibrosarcoma oncogene homologue (avian) (Avge of clones): 1.6
- expression change (fold): Aquaporin 3 (Avge of clones, 2nd listing): 4.4
- expression change (fold): Fibronectin 1, isoform 1 preproprotein (Avge of clones, 2nd listing): 5.0
- expression change (fold): Insulin-like growth factor binding protein 3 (Avge of clones, 2nd listing): 3.1
- expression change (fold): Interleukin 8 (Avge of clones, 2nd listing): 2.6
- expression change (fold): Kynureninase (L-kynurenine hydrolase) (Avge of clones, 2nd listing): 3.3
- expression change (fold): Oncostatin M receptor (Avge of clones, 2nd listing): 3.3
- expression change (fold): Prostatic acid phosphatase precursor (Avge of clones, 2nd listing): 2.8
- expression change (fold): Secreted phosphoprotein 1 (osteopontin, bone sialoprotein 1, early T-lymphocyte activation 1) (Avge of clones, 2nd listing): 18.4
- expression change (fold): v-jun avian sarcoma virus 17 oncogene homologue (Avge of clones, 2nd listing): 4.3
- expression change (fold): Kynureninase (L-kynurenine hydrolase) (Avge of clones, 3rd listing): 2.9
- expression change (fold): Absent in melanoma 2 (Clone1): 2.2
- expression change (fold): Alpha-1-antichymotrypsin precursor (Clone1): 2.7
- expression change (fold): Aquaporin 3 (Clone1): 5.2
- expression change (fold): Brain-derived neurotrophic factor (Clone1): 8.9
- expression change (fold): CCAAT/enhancer binding protein (C/EBP), delta (Clone1): 5.6
- expression change (fold): Cathepsin L (Clone1): 3.6
- expression change (fold): Cytokine receptor-like factor 1 (Clone1): 5.2
- expression change (fold): Death-associated protein kinase 1 (Clone1): 5.7
- expression change (fold): Ephrin A1 precursor (Clone1): 2.8
- expression change (fold): Ets variant gene 6 (Clone1): 3.9
- expression change (fold): Fibronectin (Clone1): 4.3
- expression change (fold): Fibronectin 1, isoform 1 preproprotein (Clone1): 7.7
- expression change (fold): Glycine dehydrogenase (decarboxylating, glycine decdarboxylase, glycine cleavage system protein P) (Clone1): 1.8
- expression change (fold): H. sapiens mRNA; cDNA DZFZp586N012 (Clone1): 2.6
- expression change (fold): I factor (complement) (Clone1): 3.8
- expression change (fold): Insulin-like growth factor binding protein 3 (Clone1): 2.5
- expression change (fold): Intercellular adhesion molecule 1 precursor (Clone1): 2.8
- expression change (fold): Interferon induced transmembrane protein 1 (9-27) (Clone1): 3.1
- expression change (fold): Interleukin 8 (Clone1): 2.3
- expression change (fold): Jun B proto-oncogene (Clone1): 3.3
- expression change (fold): KIAA0161 gene product (Clone1): 2.5
- expression change (fold): KIAA0303 protein (Clone1): 4.2
- expression change (fold): KIAA0500 protein (Clone1): 1.6
- expression change (fold): Killer cell lectin-like receptor subfamily C, member 2 (Clone1): 9.5
- expression change (fold): Killer cell lectin-like receptor subfamily C, member 3 isoform NKG2-E (Clone1): 18.4
- expression change (fold): Kynureninase (L-kynurenine hydrolase) (Clone1): 4.0
- expression change (fold): Major vault protein (Clone1): 3.6
- expression change (fold): Nicotinamide N-methyltransferase (Clone1): 2.7
- expression change (fold): Niemann-Pick disease, type C1 (Clone1): 2.3
- expression change (fold): Oncostatin M receptor (Clone1): 4.3
- expression change (fold): Osteoprotegrin (Clone1): 12.9
- expression change (fold): Prostatic acid phosphatase precursor (Clone1): 9.3
- expression change (fold): Ras-induced senescence 1 (Clone1): 2.4
- expression change (fold): Regenerating islet-derived 1 alpha (pancreatic stone protein, pancreatic thread protein) (Clone1): 4.7
- expression change (fold): Regulator of G protein signalling 16 (Clone1): 6.9
- expression change (fold): STAT induced STAT inhibitor 3 (Clone1): 9.2
- expression change (fold): Secreted phosphoprotein 1 (osteopontin, bone sialoprotein 1, early T-lymphocyte activation 1) (Clone1): 10.8
- expression change (fold): Serine (or cysteine) protease inhibitor, clade B (ovalbumin), member 3 (Clone1): 103.0
- expression change (fold): Small inducible cytokine A2 (monocyte chemotactic protein 1) (Clone1): 2.8
- expression change (fold): Solute carrier family 2 (facilitated glucose transporter), member 3 (Clone1): 2.9
- expression change (fold): Stanniocalcin 1 (Clone1): 5.2
- expression change (fold): Tyrosine phosphatase/TIGR = HG620-HT620 (Clone1): 2.3
- expression change (fold): v-fos FBJ murine osteosarcoma viral gene homologue (Clone1): 3.6
- expression change (fold): v-jun avian sarcoma virus 17 oncogene homologue (Clone1): 3.6
- expression change (fold): v-maf musculoaponeurotic fibrosarcoma oncogene homologue (avian) (Clone1): 1.2
- expression change (fold): Aquaporin 3 (Clone1, 2nd listing): 5.7
- expression change (fold): Fibronectin 1, isoform 1 preproprotein (Clone1, 2nd listing): 6.8
- expression change (fold): Insulin-like growth factor binding protein 3 (Clone1, 2nd listing): 2.3
- expression change (fold): Interleukin 8 (Clone1, 2nd listing): 2.9
- expression change (fold): Kynureninase (L-kynurenine hydrolase) (Clone1, 2nd listing): 4.3
- expression change (fold): Oncostatin M receptor (Clone1, 2nd listing): 4.2
- expression change (fold): Prostatic acid phosphatase precursor (Clone1, 2nd listing): 3.3
- expression change (fold): Secreted phosphoprotein 1 (osteopontin, bone sialoprotein 1, early T-lymphocyte activation 1) (Clone1, 2nd listing): 16.9
- expression change (fold): v-jun avian sarcoma virus 17 oncogene homologue (Clone1, 2nd listing): 5.6
- expression change (fold): Kynureninase (L-kynurenine hydrolase) (Clone1, 3rd listing): 3.9
- expression change (fold): Absent in melanoma 2 (Clone2): 2.0
- expression change (fold): Alpha-1-antichymotrypsin precursor (Clone2): 2.3
- expression change (fold): Aquaporin 3 (Clone2): 5.1
- expression change (fold): Brain-derived neurotrophic factor (Clone2): 3.6
- expression change (fold): CCAAT/enhancer binding protein (C/EBP), delta (Clone2): 3.7
- expression change (fold): Cathepsin L (Clone2): 3.8
- expression change (fold): Cytokine receptor-like factor 1 (Clone2): 4.3
- expression change (fold): Death-associated protein kinase 1 (Clone2): 4.8
- expression change (fold): Ephrin A1 precursor (Clone2): 5.2
- expression change (fold): Ets variant gene 6 (Clone2): 4.5
- expression change (fold): Fibronectin (Clone2): 4.6
- expression change (fold): Fibronectin 1, isoform 1 preproprotein (Clone2): 2.6
- expression change (fold): Glycine dehydrogenase (decarboxylating, glycine decdarboxylase, glycine cleavage system protein P) (Clone2): 1.6
- expression change (fold): H. sapiens mRNA; cDNA DZFZp586N012 (Clone2): 2.0
- expression change (fold): I factor (complement) (Clone2): 2.0
- expression change (fold): Insulin-like growth factor binding protein 3 (Clone2): 5.4
- expression change (fold): Intercellular adhesion molecule 1 precursor (Clone2): 2.1
- expression change (fold): Interferon induced transmembrane protein 1 (9-27) (Clone2): 2.5
- expression change (fold): Interleukin 8 (Clone2): 7.4
- expression change (fold): Jun B proto-oncogene (Clone2): 2.6
- expression change (fold): KIAA0161 gene product (Clone2): 2.4
- expression change (fold): KIAA0303 protein (Clone2): 1.7
- expression change (fold): KIAA0500 protein (Clone2): 6.7
- expression change (fold): Killer cell lectin-like receptor subfamily C, member 2 (Clone2): 2.7
- expression change (fold): Killer cell lectin-like receptor subfamily C, member 3 isoform NKG2-E (Clone2): 2.2
- expression change (fold): Kynureninase (L-kynurenine hydrolase) (Clone2): 3.2
- expression change (fold): Major vault protein (Clone2): 2.0
- expression change (fold): Nicotinamide N-methyltransferase (Clone2): 2.5
- expression change (fold): Niemann-Pick disease, type C1 (Clone2): 2.2
- expression change (fold): Oncostatin M receptor (Clone2): 2.4
- expression change (fold): Osteoprotegrin (Clone2): 4.4
- expression change (fold): Prostatic acid phosphatase precursor (Clone2): 11.7
- expression change (fold): Ras-induced senescence 1 (Clone2): 2.5
- expression change (fold): Regenerating islet-derived 1 alpha (pancreatic stone protein, pancreatic thread protein) (Clone2): 3.4
- expression change (fold): Regulator of G protein signalling 16 (Clone2): 3.7
- expression change (fold): STAT induced STAT inhibitor 3 (Clone2): 10.5
- expression change (fold): Secreted phosphoprotein 1 (osteopontin, bone sialoprotein 1, early T-lymphocyte activation 1) (Clone2): 40.1
- expression change (fold): Serine (or cysteine) protease inhibitor, clade B (ovalbumin), member 3 (Clone2): 97.5
- expression change (fold): Small inducible cytokine A2 (monocyte chemotactic protein 1) (Clone2): 2.0
- expression change (fold): Solute carrier family 2 (facilitated glucose transporter), member 3 (Clone2): 2.3
- expression change (fold): Stanniocalcin 1 (Clone2): 8.3
- expression change (fold): Tyrosine phosphatase/TIGR = HG620-HT620 (Clone2): 2.1
- expression change (fold): v-fos FBJ murine osteosarcoma viral gene homologue (Clone2): 4.1
- expression change (fold): v-jun avian sarcoma virus 17 oncogene homologue (Clone2): 6.3
- expression change (fold): v-maf musculoaponeurotic fibrosarcoma oncogene homologue (avian) (Clone2): 2.0
- expression change (fold): Aquaporin 3 (Clone2, 2nd listing): 3.2
- expression change (fold): Fibronectin 1, isoform 1 preproprotein (Clone2, 2nd listing): 3.3
- expression change (fold): Insulin-like growth factor binding protein 3 (Clone2, 2nd listing): 3.9
- expression change (fold): Interleukin 8 (Clone2, 2nd listing): 2.2
- expression change (fold): Kynureninase (L-kynurenine hydrolase) (Clone2, 2nd listing): 2.4
- expression change (fold): Oncostatin M receptor (Clone2, 2nd listing): 2.5
- expression change (fold): Prostatic acid phosphatase precursor (Clone2, 2nd listing): 2.4
- expression change (fold): Secreted phosphoprotein 1 (osteopontin, bone sialoprotein 1, early T-lymphocyte activation 1) (Clone2, 2nd listing): 20.0
- expression change (fold): v-jun avian sarcoma virus 17 oncogene homologue (Clone2, 2nd listing): 3.1
- expression change (fold): Kynureninase (L-kynurenine hydrolase) (Clone2, 3rd listing): 2.0
- number of genes significantly decreased (after 24 hrs of treatment): 23 genes
- number of genes significantly increased (after 24 hrs of treatment): 154 genes
- number of genes upregulated more than two-fold (after 24 hrs of treatment): 39 genes
- SOCS3 expression (as early as 1 hr after treatment): rapidly increased

Reference: patent US20080064027A1, “TEL/Etv6-mediated inhibition of cell proliferation” (priority 2002, published 2008)
